Assay results: ChEMBL document CHEMBL1201862, “PubChem BioAssay data set” (2004)
Active and inactive are the calls of the source.

Legend:
[1] = target: T1, Neuropeptide Y receptor type 2 (Homo sapiens, UniProt P49146); assay type: functional, cell-based;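 further: HEK293 cells expressing the receptor and a CNG channel; stimulus was NPY near EC95 followed by isoproterenol to raise cAMP; antagonist potency measured as restoring cAMP signal that NPY suppresses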
T1 sequence (P49146 whole entry): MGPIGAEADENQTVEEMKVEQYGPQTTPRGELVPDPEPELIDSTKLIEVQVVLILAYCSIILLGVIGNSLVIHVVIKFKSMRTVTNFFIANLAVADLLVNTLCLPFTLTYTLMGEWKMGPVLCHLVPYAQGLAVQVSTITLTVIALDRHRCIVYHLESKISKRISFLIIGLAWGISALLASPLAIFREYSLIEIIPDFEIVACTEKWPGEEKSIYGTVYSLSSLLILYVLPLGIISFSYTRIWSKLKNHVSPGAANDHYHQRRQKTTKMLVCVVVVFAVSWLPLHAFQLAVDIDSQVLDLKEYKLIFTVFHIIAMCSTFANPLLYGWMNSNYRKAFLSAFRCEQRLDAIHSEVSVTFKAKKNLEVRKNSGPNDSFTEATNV

[2] = target: T2, Neuropeptide Y receptor type 1 (Homo sapiens, UniProt P25929); assay type: functional;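 further: HEK293 cells with a CNG channel challenged with NPY then isoproterenol; potency as antagonist that reverses NPY suppression of cAMP signal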
T2 sequence (P25929 whole entry): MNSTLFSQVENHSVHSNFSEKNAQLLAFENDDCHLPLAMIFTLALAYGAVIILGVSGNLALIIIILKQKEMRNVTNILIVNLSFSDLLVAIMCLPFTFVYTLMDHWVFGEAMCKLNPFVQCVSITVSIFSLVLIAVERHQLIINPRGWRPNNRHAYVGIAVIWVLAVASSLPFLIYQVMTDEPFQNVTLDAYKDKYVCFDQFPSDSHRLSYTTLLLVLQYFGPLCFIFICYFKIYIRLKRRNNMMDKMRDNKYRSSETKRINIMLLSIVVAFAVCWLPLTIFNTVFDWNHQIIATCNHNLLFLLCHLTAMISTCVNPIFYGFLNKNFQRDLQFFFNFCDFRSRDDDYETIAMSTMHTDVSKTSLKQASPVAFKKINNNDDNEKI

[3] = cytotoxicity in HPDE-C7 cells, cell-based, fluorescence, HTS (AID 430); assay type: functional; conditions: Homo sapiens
NS3 = NS3 (Hepatitis C virus, UniProt A3EZJ3); assay: PubChem AID 2173; parameters: species or system Hepacivirus hominis
[4] = cytotoxicity in KRAS-transformed pancreatic duct cells, primary screen, cell-based, fluorescence, HTS (AID 431); assay type: functional; conditions: Homo sapiens;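 further: cell line used: HPDE-C7K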
HEK293 [5] = assay: optical interference in Abeta FP readout, dose response, artefact control for IDE activator project, biochemical, fluorescence polarization (AID 588442); assay type: functional, cell-based; conditions: Homo sapiens
[6] = target: E3 ubiquitin-protein ligase XIAP (Homo sapiens, UniProt P98170); assay: Counter Screen using XIAP-Bir3 for Chemical Antagonists of Bir1/2 domains of IAP-family anti-apoptotic proteins. [Related pubchem assays (depositor defined):AID1018, AID1449, AID1514, AID1638, AID1749, AID1750, AID488957, AID488963]
Insulin-degrading enzyme [7] = target: T3, Insulin-degrading enzyme (Homo sapiens, UniProt P14735); assay: activators of recombinant IDE enzyme, dose response, counter-screen for IDE activator project, biochemical, fluorescence polarization (AID 588681)
T3 sequence (P14735 whole entry): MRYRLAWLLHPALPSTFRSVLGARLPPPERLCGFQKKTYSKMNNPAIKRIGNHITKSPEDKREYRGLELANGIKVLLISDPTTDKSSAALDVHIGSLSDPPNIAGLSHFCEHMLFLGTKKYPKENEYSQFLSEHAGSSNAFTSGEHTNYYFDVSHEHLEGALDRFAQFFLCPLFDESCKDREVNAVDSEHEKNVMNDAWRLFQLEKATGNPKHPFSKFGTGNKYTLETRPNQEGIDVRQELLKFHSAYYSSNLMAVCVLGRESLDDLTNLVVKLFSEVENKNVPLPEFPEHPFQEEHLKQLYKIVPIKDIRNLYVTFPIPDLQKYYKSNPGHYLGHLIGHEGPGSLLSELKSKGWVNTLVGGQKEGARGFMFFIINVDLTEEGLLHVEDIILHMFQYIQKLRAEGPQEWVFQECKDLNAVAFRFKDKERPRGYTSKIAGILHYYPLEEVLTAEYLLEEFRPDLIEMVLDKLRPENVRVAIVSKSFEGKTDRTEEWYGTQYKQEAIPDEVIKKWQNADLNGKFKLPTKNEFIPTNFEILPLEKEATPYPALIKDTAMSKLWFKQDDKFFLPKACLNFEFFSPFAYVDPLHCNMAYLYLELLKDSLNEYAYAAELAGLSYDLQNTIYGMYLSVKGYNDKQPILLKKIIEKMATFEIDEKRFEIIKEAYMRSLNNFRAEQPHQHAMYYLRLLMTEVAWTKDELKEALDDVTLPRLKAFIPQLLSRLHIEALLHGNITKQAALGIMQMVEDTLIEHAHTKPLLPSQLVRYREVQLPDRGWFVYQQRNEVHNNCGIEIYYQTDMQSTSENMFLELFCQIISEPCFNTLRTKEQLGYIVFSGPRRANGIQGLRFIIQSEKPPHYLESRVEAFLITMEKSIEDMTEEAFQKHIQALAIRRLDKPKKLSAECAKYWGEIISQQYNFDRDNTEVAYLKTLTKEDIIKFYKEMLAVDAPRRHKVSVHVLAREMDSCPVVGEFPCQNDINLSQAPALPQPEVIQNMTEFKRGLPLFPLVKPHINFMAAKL

HEK293 [8] = assay: HEK cell cytotoxicity by LDH release, dose response, cytotoxicity control for IDE activator project, fluorescence, HEK cells (AID 588440); assay type: functional, cell-based; conditions: Homo sapiens;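 further: cytotoxicity by LDH release measuring loss of membrane integrity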
Beta-lactamase [9] = target: Beta-lactamase (Salmonella choleraesuis (strain SC-B67), UniProt Q5J463)
Beta-lactamase [10] = target: Beta-lactamase (Pseudomonas aeruginosa, UniProt Q79MP6);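 further: biochemical dose-response test of metallo-beta-lactamase enzyme inhibition, read out by epi-absorbance; purified recombinant IMP-1 metallo-beta-lactamase with nitrocefin as substrate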
Insulin-degrading enzyme [11] = target: T3, Insulin-degrading enzyme; assay: activators of endogenous IDE in HEK cells, dose response, cell-based, fluorescence polarization (AID 588439); assay type: functional
[12] = target: Melanin-concentrating hormone receptor 1 (Homo sapiens, UniProt Q99705); assay: Fluorescence-based counterscreen for antagonists of the G-protein coupled receptor 7 (GPR7): cell-based high throughput dose response assay to identify antagonists of the melanin-concentrating hormone receptor 1 (MCHR1).; assay type: functional
[13] = target: T4, Neuropeptides B/W receptor type 1 (Homo sapiens, UniProt P48145); assay: Fluorescence-based dose response cell-based high throughput screening assay to identify antagonists of the G-protein coupled receptor 7 (GPR7). [Related pubchem assays: 1952 (Screening assay (GPR7 antagonists).), 1880 (Summary AID.)]; assay type: functional
T4 sequence (P48145 whole entry): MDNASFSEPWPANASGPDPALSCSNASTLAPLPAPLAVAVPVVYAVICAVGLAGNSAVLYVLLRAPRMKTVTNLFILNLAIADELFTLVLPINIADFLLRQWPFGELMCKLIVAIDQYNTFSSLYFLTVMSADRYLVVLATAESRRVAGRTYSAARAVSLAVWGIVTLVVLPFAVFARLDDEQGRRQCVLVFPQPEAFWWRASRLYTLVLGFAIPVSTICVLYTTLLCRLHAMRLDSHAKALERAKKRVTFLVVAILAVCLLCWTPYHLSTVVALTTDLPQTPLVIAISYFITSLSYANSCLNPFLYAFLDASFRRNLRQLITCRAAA

HeLa = assay: HeLa cell cytotoxicity, dose response, cytotoxicity control, 24 h, cherry-picked samples (AID 504726); assay type: functional, cell-based; conditions: Homo sapiens;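 further: potency for cytotoxicity as loss of luminescence signal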

Chain of NS3 (A3EZJ3 whole entry): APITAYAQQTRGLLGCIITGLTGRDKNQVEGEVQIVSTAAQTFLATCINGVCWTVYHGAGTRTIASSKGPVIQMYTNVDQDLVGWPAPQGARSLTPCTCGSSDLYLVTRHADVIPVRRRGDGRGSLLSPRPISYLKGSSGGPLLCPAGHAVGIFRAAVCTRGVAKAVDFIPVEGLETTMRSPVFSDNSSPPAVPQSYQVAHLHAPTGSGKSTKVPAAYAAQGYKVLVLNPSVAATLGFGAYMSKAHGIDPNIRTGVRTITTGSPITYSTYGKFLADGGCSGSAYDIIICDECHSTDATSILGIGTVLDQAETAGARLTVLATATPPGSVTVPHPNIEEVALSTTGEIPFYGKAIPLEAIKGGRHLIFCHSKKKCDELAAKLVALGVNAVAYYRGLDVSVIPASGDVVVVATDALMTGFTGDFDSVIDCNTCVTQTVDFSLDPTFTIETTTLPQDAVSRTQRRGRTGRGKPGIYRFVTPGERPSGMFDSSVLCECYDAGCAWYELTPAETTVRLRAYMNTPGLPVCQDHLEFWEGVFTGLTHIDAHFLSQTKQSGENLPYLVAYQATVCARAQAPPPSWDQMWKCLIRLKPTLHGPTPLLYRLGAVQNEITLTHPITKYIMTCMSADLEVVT
Chain of E3 ubiquitin-protein ligase XIAP (P98170 whole entry): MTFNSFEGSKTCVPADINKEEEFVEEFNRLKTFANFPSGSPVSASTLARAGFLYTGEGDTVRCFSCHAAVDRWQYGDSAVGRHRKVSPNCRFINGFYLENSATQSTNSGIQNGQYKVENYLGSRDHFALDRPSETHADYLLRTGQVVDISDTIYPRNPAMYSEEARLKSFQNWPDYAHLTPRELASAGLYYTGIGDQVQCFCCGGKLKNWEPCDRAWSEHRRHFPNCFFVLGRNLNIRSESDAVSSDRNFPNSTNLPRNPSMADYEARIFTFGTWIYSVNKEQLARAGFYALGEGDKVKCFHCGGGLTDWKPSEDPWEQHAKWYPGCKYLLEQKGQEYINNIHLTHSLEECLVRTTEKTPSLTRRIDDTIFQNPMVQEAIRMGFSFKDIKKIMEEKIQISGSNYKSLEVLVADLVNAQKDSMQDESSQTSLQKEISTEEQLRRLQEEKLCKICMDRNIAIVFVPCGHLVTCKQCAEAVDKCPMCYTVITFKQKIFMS
Chain of Beta-lactamase (Pseudomonas aeruginosa, UniProt Q79MP6) (Q79MP6 whole entry): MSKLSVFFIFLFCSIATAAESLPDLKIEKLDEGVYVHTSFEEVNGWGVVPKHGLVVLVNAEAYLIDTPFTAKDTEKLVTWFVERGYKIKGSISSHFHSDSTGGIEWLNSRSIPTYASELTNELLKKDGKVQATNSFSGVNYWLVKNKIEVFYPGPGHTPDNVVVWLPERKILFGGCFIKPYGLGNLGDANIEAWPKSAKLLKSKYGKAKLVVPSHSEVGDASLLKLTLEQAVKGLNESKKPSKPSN
Chain of Melanin-concentrating hormone receptor 1 (Q99705 whole entry): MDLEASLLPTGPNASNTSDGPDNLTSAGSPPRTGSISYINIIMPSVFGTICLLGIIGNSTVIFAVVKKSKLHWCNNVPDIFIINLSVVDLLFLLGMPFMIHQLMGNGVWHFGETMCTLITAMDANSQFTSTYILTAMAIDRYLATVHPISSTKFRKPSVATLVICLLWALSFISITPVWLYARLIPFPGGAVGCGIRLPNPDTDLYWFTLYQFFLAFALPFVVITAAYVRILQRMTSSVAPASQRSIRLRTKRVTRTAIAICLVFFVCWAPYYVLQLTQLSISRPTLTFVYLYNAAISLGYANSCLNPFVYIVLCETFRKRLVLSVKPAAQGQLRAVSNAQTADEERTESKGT
Chain of Beta-lactamase (Salmonella choleraesuis (strain SC-B67), UniProt Q5J463) (Q5J463 whole entry): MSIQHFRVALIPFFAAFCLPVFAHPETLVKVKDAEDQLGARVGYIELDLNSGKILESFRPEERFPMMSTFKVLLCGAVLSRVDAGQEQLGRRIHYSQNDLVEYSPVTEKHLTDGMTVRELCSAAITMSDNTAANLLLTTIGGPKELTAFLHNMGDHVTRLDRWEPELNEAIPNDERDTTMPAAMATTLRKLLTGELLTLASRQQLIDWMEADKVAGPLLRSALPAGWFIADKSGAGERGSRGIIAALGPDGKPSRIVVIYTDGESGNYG

Q: What does the source list for Nn1c(Cc2cccc3ccccc23)nnc1SCc1c(Cl)cccc1Cl?
A: IC50 [1]: 4.3 µM (active); IC50 [2]: 5.1 µM (active)

Q: Which results are given for O=C(c1ccc2nc(-c3ccco3)c(-c3ccco3)nc2c1)N1CCN(c2ccccc2)CC1?
A: EC50 [3]: 18 µM (active); IC50 (NS3): 19.7 µM (not active); EC50 [4]: > 20 µM (not active)

Q: Which EC50 (HEK293 [5]) does the source give for O=c1ccc2c(-c3ccccc3)c3ccc(O)cc3oc-2c1 here?
A: > 54.6 µM (inactive)

Q: What about the IC50 [6] of the same compound?
A: > 20 µM (inactive)

Q: And the EC50 (Insulin-degrading enzyme [7])?
A: > 54.6 µM (inactive)

Q: What about the IC50 (HEK293 [8]) of the same compound?
A: > 89.1 µM (inactive)

Q: What about the IC50 (Beta-lactamase [9]) of the same compound?
A: 190 nM (active)

Q: And the IC50 (NS3)?
A: 7.38 µM (active)

Q: And the IC50 (Beta-lactamase [10])?
A: 399 nM (active)

Q: And the EC50 (Insulin-degrading enzyme [11])?
A: > 54.6 µM (inactive)

Q: What does the source list for N=c1c(C(=O)NCCc2ccccc2)cc2c(=O)n3ccccc3nc2n1CC1CCCO1 (stereo unspecified)?
A: IC50 [12]: 158 µM (not active); IC50 [13]: > 43.8 µM (not active)

Q: Which AC50 (HeLa) does the source give for O=C(/C=C/c1ccco1)Nc1ccccc1C(=O)Nc1cccc(C(=O)O)c1 here?
A: 180 µM (active)
